Data published in patent US20080032998A1, “Pyrazolopyrimidines, a process for their preparation and their use as medicine” (MERZ PHARMA GMBH & CO. KGAA, priority 2006, published 2008).

What was measured:
[1] = molecular target: T1, metabotropic glutamate receptor (mGluR5) (Homo sapiens, UniProt P41594); experiment: Activity as mGluR5 modulator (prior-art compounds, method not given)
[2] = molecular target: T2, mGluR5 receptors (Rattus norvegicus, UniProt P31424); experiment: Cytosolic calcium studies with astrocytes (astrocyte culture test, FLIPR); assay type: cell-based; conditions: rat primary astrocytes, L-quisqualate 100 nM; read-out: mGluR5_FLIPR_r_rpA IC50
T2 construct: endogenous in cells; host or cells: primary astrocytes from neocortex of Sprague-Dawley rat pups
Method: Primary astrocyte cultures are prepared from cortices of newborn rats as described by Booher and Sensenbrenner (1972, Neurobiology 2(3):97-105). Briefly, Sprague-Dawley rat pups (2-4 d old) are decapitated and neocortices are dissected, disintegrated with a nylon filter (pore size 80 μm) and carefully triturated. […]
The increase of cytosolic calcium after stimulation with the mGluR5 agonist L-quisqualate is measured using a fluorometric imaging plate reader (FLIPR) and the Ca-Kit (both Molecular Devices). […] Subsequently, plates are transferred to FLIPR to detect calcium increase with the addition of L-quisqualate (100 nM) measured as relative fluorescence units (RFU). […]
(§1) The fluorescence signal increase after addition of agonist reflects the increase of cytosolic calcium. […] The mean of replicated temporal data (n=3-5) is calculated and used for graphical representation. For the evaluation of the pharmacology, the calcium changes in response to different concentrations of agonist or antagonist are determined using a maximum minus minimum (MaxMin) calculation.
All responses (RFU-values) are determined as percentage of control (=maximum response). EC50 and IC50 are calculated according the logistic equation using GraFit 5.0 (Erithacus Software, GB) or Prism 4.0 (GraphPad Software, USA).

[3] = molecular target: T3, transmembrane allosteric modulatory sites of mGluR5 receptors in cortical membranes (Rattus norvegicus, UniProt P31424); experiment: [3H]-MPEP binding assay in rat cortical membranes; conditions: [3H]-MPEP 5 nM, read-out: mGluR5_MPEP rCTX_IC50
T3 construct: from tissue; host or cells: rat brain cortex membranes (male Sprague-Dawley)
Method: Male Sprague-Dawley rats (200-250 g) are decapitated and their brains are removed rapidly. The cortex is dissected and homogenized in 20 volumes of ice-cold 0.32 M sucrose using a glass-Teflon homogenizer. The homogenate is centrifuged at 1000×g for 10 minutes. The pellet is discarded and the supernatant centrifuged at 20,000×g for 20 minutes. The resulting pellet is re-suspended in 20 volumes of distilled water and centrifuged for 20 minutes at 8000×g. Then the supernatant and the buffy coat are centrifuged at 48,000×g for 20 minutes in the presence of 50 mM Tris-HCl, pH 8.0. The pellet is then re-suspended and centrifuged two to three more times at 48,000×g for 20 minutes in the presence of 50 mM Tris-HCl, pH 8.0. All centrifugation steps are carried out at 4° C. After resuspension in 5 volumes of 50 mM Tris-HCl, pH 8.0 the membrane suspension is frozen rapidly at −80° C. […]
Alternatively, assays are performed with [^3H]-MMPEP (2-(3-methoxyphenylethynyl)-6-methylpyridine hydrochloride) as radioligand. […] Following separation and rinse, the filters are placed into scintillation liquid (5 ml Ultima Gold, Perkin Elmer, Germany) and radioactivity retained on the filters is determined with a conventional liquid scintillation counter (Canberra Packard, Germany).

[4] = molecular target: T1, metabotropic glutamate receptor (mGluR5); experiment: Cytosolic calcium studies with stably transfected cells (FLIPR); assay type: cell-based; set-up: expressed in transfected cells; host or cells: CHO-K1 cells (IPTG-inducible expression); conditions: CHO-K1 cells with human mGluR5, agonist L-quisqualic acid; read-out: mGluR5_FLIPR_h_CHONAM_IC50
Method: Cytosolic Calcium Studies with Stably Transfected Cells
Chinese hamster ovary cells (CHO-K1 cells), stably transfected for inducible expression of a human metabotropic glutamate receptor mGluR5, are seeded into black clear bottom 96 well plates at a density of 35.000 cells per well. The standard growth medium used (Dulbecco's modified Eagle Medium, DMEM plus L-proline) contains the appropriate inducer isopropyl-β-D-thiogalactopyranosid (IPTG) to achieve optimal receptor expression. One day after seeding the growth medium is exchanged for reconstituted Ca-Kit (Molecular Devices, USA) and incubated for one hour. […] Agonistic compounds to the receptor elicit increases in cytosolic calcium which can be measured as increases in fluorescence signals by use of a fluorescence imaging plate reader (Molecular Devices).
as §1
All responses (RFU-values) are determined as percentage of control (=maximum response). […]

T1 sequence (P41594 21-1212): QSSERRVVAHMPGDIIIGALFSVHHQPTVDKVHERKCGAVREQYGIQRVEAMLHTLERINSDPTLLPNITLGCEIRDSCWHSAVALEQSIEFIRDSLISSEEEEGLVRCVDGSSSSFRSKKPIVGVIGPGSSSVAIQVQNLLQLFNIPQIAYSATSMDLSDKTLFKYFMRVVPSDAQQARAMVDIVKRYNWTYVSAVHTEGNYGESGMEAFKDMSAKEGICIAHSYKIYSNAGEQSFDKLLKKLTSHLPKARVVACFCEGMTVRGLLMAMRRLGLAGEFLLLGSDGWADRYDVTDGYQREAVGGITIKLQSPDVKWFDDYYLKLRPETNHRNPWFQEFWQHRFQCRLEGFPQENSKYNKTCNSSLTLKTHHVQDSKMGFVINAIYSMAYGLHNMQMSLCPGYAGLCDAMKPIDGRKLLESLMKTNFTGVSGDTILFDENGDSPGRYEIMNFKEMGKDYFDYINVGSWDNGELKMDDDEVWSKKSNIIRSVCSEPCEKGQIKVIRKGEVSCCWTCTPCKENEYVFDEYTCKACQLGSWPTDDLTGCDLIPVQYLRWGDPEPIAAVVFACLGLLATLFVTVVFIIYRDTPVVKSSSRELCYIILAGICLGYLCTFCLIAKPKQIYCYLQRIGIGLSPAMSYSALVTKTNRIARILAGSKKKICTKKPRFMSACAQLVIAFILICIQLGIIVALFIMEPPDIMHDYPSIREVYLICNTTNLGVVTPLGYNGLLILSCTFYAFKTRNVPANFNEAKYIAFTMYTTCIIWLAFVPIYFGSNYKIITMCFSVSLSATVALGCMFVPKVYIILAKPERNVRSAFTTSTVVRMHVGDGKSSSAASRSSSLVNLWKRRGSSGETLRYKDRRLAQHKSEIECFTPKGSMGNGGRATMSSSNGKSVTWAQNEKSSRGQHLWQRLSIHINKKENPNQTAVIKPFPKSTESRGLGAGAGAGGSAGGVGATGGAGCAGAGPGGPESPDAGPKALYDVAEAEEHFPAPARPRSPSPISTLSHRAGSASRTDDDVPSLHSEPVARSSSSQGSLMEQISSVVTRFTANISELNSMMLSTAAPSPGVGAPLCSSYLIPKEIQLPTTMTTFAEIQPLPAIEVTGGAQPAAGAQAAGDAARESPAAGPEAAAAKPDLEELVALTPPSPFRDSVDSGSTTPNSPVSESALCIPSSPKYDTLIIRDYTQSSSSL
T2 sequence (P31424 21-1203): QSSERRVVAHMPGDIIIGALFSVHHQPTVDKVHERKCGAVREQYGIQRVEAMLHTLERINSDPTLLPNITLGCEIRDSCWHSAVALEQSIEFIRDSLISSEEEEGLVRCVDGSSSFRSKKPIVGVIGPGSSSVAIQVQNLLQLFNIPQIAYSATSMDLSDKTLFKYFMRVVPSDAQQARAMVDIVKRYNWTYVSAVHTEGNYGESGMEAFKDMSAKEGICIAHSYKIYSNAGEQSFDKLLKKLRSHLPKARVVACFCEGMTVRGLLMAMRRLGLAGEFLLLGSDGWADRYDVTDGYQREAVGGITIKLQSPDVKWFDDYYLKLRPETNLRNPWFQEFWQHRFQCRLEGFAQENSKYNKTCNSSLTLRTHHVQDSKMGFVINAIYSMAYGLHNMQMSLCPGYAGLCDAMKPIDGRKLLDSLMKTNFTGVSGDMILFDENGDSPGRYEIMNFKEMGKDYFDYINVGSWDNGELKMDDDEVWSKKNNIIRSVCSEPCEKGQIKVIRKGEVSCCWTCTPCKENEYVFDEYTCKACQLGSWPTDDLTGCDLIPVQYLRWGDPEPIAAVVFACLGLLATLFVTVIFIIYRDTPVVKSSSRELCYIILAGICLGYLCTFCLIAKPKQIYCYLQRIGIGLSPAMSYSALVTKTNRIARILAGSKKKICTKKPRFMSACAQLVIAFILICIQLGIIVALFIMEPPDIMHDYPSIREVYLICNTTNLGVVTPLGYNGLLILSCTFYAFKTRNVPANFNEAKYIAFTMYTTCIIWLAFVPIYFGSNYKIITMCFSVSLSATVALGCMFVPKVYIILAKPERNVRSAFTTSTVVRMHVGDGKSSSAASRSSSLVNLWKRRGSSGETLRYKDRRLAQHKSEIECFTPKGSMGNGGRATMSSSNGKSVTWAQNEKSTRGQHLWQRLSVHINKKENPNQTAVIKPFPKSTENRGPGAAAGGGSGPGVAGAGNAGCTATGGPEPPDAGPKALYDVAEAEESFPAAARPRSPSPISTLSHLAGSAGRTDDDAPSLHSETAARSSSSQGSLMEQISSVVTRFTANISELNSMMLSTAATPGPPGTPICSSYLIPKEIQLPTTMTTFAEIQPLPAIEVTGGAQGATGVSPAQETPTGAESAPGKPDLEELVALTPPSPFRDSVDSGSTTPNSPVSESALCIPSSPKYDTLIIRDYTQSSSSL
T3 sequence (P31424 21-1203): as above

| SMILES | activity as metabotropic glutamate receptor (mGluR5) modulator [1] | selectivity [1] | IC50 [2] [nM] | IC50 [3] [nM] | IC50 [4] [nM] |
| --- | --- | --- | --- | --- | --- |
| O=C(c1cc2ncc(Br)cn2n1)N1CCc2ccccc2C1 [M, (6-Bromo-pyrazolo[1,5-a]pyrimidin-2-yl)-(1,2,3,4-tetrahydro-isoquinolin-2-yl)-methanon] | only a limited activity | not selective | – | – | – |
| O=C(c1cc2ncc(Br)cn2n1)N1CC=C(c2ccccc2)CC1 [Example 1, (6-Bromo-pyrazolo[1,5-a]pyrimidin-2-yl)-(4-phenyl-3,6-dihydro-2H-pyridin-1-yl)-methanone] | – | – | 80 | 250 | 493 |
